{"source": "patent US20100267031A1", "about": "“Method of Screening for RAGE-Amyloid-Beta Peptide Interaction Inhibiting Materials” (priority 2007, published 2010)", "test_system": "bEND.3 cells", "assay": "Comparison of passage through intercellular space (standard materials, with or without mannitol)", "assay_type": "in vitro ADME, mouse", "settings": "wells treated with mannitol (0.8 M) vs not treated; 20 min intervals over 120 min", "procedure": "The cells were seeded on the inserts of 24-well Transwell plates and cultured for 5 days as described above examples. F—Na (10 μM, Sigma, Cat No. 28803), FD4 (1 mM, Sigma, Cat No. FD4), and FD40 (25 μM, Sigma, Cat No. FD40S), all labeled with fluorescence (FITC), were used as standard materials for intercellular passage comparison. Mannitol (0.8 M), known to interfere with the formation of intercellular tight junctions, was added to some wells while other wells were not treated with mannitol. Thereafter, the standard materials were added to the wells, followed by monitoring the fluorescence intensity in the lower compartment of the Transwell plates at regular intervals of 20 min over 120 min.\nF—Na, FD4 and FD40 were 376 Da, 4,000 Da and 40,000 Da in size, respectively. When tight junctions are formed, the materials which can pass between cells are limited by the sizes thereof. Thus, the standard materials may be used as positive or negative controls. For example, when tight junctions are well formed, FD40 differs in passage through intercellular spaces from F—Na and FD4 due to difference in […] size.", "data": [{"smiles": "O=C([O-])c1ccccc1-c1c2ccc(=O)cc-2oc2cc([O-])ccc12.[Na+].[Na+]", "note": "[F—Na]", "values": [{"measurement": "fluorescence intensity in the lower compartment", "result": "higher intensities were detected in the wells treated with mannitol"}]}]}
